In US11203592B2, “Inhibitors of indoleamine 2,3-dioxygenase and methods of their use” (BRISTOL-MYERS SQUIBB COMPANY, priority 2017, dated 2021) one finds IC50 data, which are given here for six compounds.

Assay [1] deals with T1, indoleamine 2,3-dioxygenase (IDO) (Homo sapiens, UniProt P14902).
T1 construct: endogenous in cells; host or cells: HeLa (ATCC CCL-2), induced with IFNγ at 25 ng/mL
As to the kind of experiment: HeLa cell-based indoleamine 2,3-dioxygenase (IDO) assay, kynurenine production. As to conditions: HeLa cells, IFNγ 25 ng/mL, 48 hour incubation, kynurenine absorbance at 480 nm. How it is done: Assessment of Inhibitor Activity in HeLa Cell-Based Indoleamine 2,3-dioxygenase (IDO) Assay:
HeLa (ATCC® CCL-2) cells were obtained from the ATCC® and cultured in Dulbecco's Modified Eagle Medium supplemented with 4.5 g/L glucose, […] (#10-013-CV, Corning), 2 mM L-alanyl-L-glutamine dipeptide (#35050-061, Gibco), 100U/mL penicillin, 100 μg/mL streptomycin (#SV30010, HyClone) and 10% fetal bovine serum (#SH30071.03 HyClone). Cells were maintained in a humidified incubator at 37° C. in 5% CO2.
IDO activity was assessed as a function of kynurenine production as follows: HeLa cells were seeded in a 96-well culture plate at a density of 5,000 cells/well and allowed to equilibrate overnight. After 24 hours, the media was aspirated and replaced with media containing IFNγ (#285-IF/CF, R&D Systems) at a final concentration of 25 ng/mL. A serial dilution of each test compound was added to the cells in a total volume of 200 μL of culture medium. After a further 48 hour incubation, 170 μL of supernatant was transferred from each well to a fresh 96-well plate. 12.1 μL of 6.1N trichloroacetic acid (#T0699, Sigma-Aldrich) was added to each well and mixed, followed by incubation at 65° C. for 20 minutes to hydrolyze N-formylkynurenine, the product of indoleamine 2,3-dioxygenase, to kynurenine. The reaction mixture was then centrifuged for 10 mins at 500×g to sediment the precipitate. 100 μL of the supernatant was transferred from each well to a fresh 96-well plate. 100 μl of 2% (w/v) p-dimethylaminobenzaldehyde (#15647-7, Sigma-Aldrich) in acetic acid (#A6283, Sigma-Aldrich) was added to each well mixed and incubated at room temperature for 20 inns. Kynurenine concentrations were determined by measuring absorbance at 480 nm and calibrating against an L-kynurenine (#K8625, Sigma-Aldrich) standard curve using a SPECTRAMAX® M2e microplate reader (Molecular Devices). The percentage activity at each inhibitor concentration was determined and IC50 values assessed using nonlinear regression.

The target of another assay is T2, human IDO1 (Homo sapiens, UniProt P14902).
T2 construct: expressed in transfected cells
T2 sequence (P14902 whole entry): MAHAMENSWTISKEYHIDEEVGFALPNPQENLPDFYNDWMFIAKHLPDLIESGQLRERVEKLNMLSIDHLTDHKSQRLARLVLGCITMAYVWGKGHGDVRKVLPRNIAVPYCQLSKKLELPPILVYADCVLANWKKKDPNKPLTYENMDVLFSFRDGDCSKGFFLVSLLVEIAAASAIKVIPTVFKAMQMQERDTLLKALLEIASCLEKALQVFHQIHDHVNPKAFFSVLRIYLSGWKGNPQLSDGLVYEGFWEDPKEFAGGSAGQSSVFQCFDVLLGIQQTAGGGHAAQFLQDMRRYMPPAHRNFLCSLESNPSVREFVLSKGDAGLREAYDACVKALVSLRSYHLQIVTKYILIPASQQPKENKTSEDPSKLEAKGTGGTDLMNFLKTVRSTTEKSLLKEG
Nature of the assay: human IDO1/HEK293 cell IDO inhibition assay. It is filed as cell-based. As to conditions: HEK293 cells stably expressing human IDO1, 20 hours incubation, absorbance at 490 nm; read-out: IDO1 HEK Human IC50. The method, then:
HEK293 cells were transfected with a pCDNA-based mammalian expression vector harboring human IDO1 cDNA (NM 002164.2) by electroporation. They were cultured in medium (DMEM with 10% FBS) containing 1 mg/ml G418 for two weeks. Clones of HEK293 cells that stably expressed human IDO1 protein were selected and expanded for IDO inhibition assay.
The human IDO1/HEK293 cells were seeded at 10,000 cells per 50 μL per well with RPMI/phenol red free media contains 10% FBS in a 384-well black wall clear bottom tissue culture plate (Matrix Technologies LLC) 100 nL of certain concentration of compound was then added to each well using ECHO liquid handling systems. The cells were incubated for 20 hours in 37° C. incubator with 5% CO2.
The compound treatments were stopped by adding trichloroacetic acid (Sigma-Aldrich) to a final concentration at 0.2%. The cell plate was further incubated at 50° C. for 30 minute. The equal volume supernatant (20 μL) and 0.2% (w/v) Ehrlich reagent (4-dimethylaminobenzaldehyde, Sigma-Aldrich) in glacial acetic acid were mixed in a new clear bottom 384-well plate. This plate was then incubated at room temperature for 30 minute. The absorbance at 490 nm was measured on Envision plate reader.
Compound IC50 values were calculated using the counts of 500 nM of a reference standard treatment as one hundred percent inhibition, and counts of no compound but DMSO treatment as zero percent inhibition.

T1 sequence (P14902 whole entry): as above

For orientation: IC50 means the point on the concentration scale where inhibition reaches its midpoint. In assay [1], `CC(C(=O)Nc1ccc(Cl)cc1)[C@H]1CC[C@@]2(CC1)OCc1ccccc12` (mixture of isomers) [Example 4, rac-N-(4-Chlorophenyl)-2-((1r,4r)-3′H-spiro[cyclohexane-1,1′-isobenzofuran]-4-yl)propanamide] gave an IC50 of 50 nM.
In the case of `C[C@H](C(=O)Nc1ccc(Cl)cc1)[C@H]1CC[C@@]2(CC1)COc1ccccc12` [Example 15, (S)—N-(4-Chlorophenyl)-2-((1'S,4′r)-2H-spiro[benzofuran-3,1′-cyclohexan]-4′-yl)propanamide], the IC50 in assay [1] was 20 nM; on human IDO1, 17 nM.
`O=C(C[C@H]1CC[C@@]2(CC1)OCc1ccccc12)NC12CC3CC(CC(C3)C1)C2` [Example 2, N-((1R,3S)-Adamantan-1-yl)-2-((1R,4r)-3′H-spiro[cyclohexane-1,1′-isobenzofuran]-4-yl)acetamide] yielded an IC50 in assay [1] of 189 nM.
Compound `CC(NC(=O)C12CCC(Cl)(CC1)CC2)[C@H]1CC[C@]2(CC1)OCc1ccccc12` (mixture of isomers) [Example 13, rac-N-(1-((1s,4s)-3′H-Spiro[cyclohexane-1,1′-isobenzofuran]-4-yl)ethyl)-4-chlorobicyclo[2.2.2]octane-1-carboxamide] showed an IC50 in assay [1] of 628 nM.
For `O=C(C[C@H]1CC[C@@]2(CC1)OCc1ccccc12)Nc1ccc(Cl)cc1` [Example 1, N-(4-Chlorophenyl)-2-((1r,4r)-3′H-spiro[cyclohexane-1,1′-isobenzofuran]-4-yl)acetamide], the IC50 in assay [1] stood at 114 nM; on human IDO1, 100 nM.
Taken in the same sequence, the figures for `O=C(C[C@H]1CC[C@]2(CC1)OCc1ccccc12)Nc1ccc(Cl)cc1` [Example 3, N-(4-Chlorophenyl)-2-((1s,4s)-3′H-spiro[cyclohexane-1,1′-isobenzofuran]-4-yl)acetamide] were 219 nM and 511 nM.
